The assay deals with CHO. Briefly: Stimulation of glycosaminoglycan chains formation in xylosyltransferase-deficient CHO pgsA-745 cells by liquid scintillation spectrophotometry. It counts as functional, cell-based. The settings on record: Cricetulus griseus.

Molecules are shown by their SMILES. The source made the active and inactive calls. The rule behind the calls is not given here.

The values that follow come from ChEMBL document CHEMBL1144074, “Glycoside primers of Psittacanthus cucullaris” (J Nat Prod, 1999).

For the compound `COc1c(O)cc2c(=O)oc3c(OC)c(O[C@@H]4OC[C@@H](O)[C@H](O)[C@H]4O)cc4c(=O)oc1c2c34`, the outcome was Active.

`COc1cc2c(=O)oc3c(OC)c(O[C@@H]4OC[C@@H](O)[C@H](O)[C@H]4O)cc4c(=O)oc(c1OC)c2c34`: the result was Active.
